From ChEMBL document CHEMBL1201862, “PubChem BioAssay data set” (2004)
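All cell lines were grown in 96-well plates and treated with compound for 48 hours. At the GI50, growth is halved.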 Activity calls are given as the source filed them. No stated cut-off is given here; in the data, active = GI50 up to about 1.1 µM and inactive = higher.

Tests used:
Assay in all cases: NCI-60 cell line screen, 48 h
OVCAR-8 = system: OVCAR-8
HCC 2998 = system: HCC 2998
KM12 = system: KM12
HOP-62 = system: HOP-62
HOP-92 = system: HOP-92
Malme-3M = system: Malme-3M
ACHN = system: ACHN
NCI-H23 = system: NCI-H23
MOLT-4 = system: MOLT-4
SK-MEL-28 = system: SK-MEL-28
786-0 = system: 786-0
TK-10 = system: TK-10
LOX IMVI = system: LOX IMVI
RXF 393 = system: RXF 393
OVCAR-5 = system: OVCAR-5
M14 = system: M14
UACC-62 = system: UACC-62
SN12C = system: SN12C
OVCAR-4 = system: OVCAR-4
NCI-H226 = system: NCI-H226

Measured: GI50

O=C1/C(=C/c2ccccc2Cl)COc2ccccc21
inactive: OVCAR-8 17.2 µM | HCC 2998 20.9 µM | KM12 10.8 µM | HOP-62 16.9 µM | HOP-92 15.1 µM | Malme-3M 15.5 µM | ACHN 19.1 µM | NCI-H23 19.1 µM | MOLT-4 5.79 µM | SK-MEL-28 16.3 µM | 786-0 15.2 µM | TK-10 13.8 µM | LOX IMVI 15.3 µM | RXF 393 15.5 µM | OVCAR-5 17.8 µM

CC(=O)CCC(=O)C(=[N+]=[N-])S(=O)(=O)c1ccccc1
inactive: M14 > 100 µM | OVCAR-8 > 100 µM | HCC 2998 > 100 µM | UACC-62 > 100 µM | KM12 > 100 µM | HOP-62 > 100 µM | Malme-3M > 100 µM | ACHN > 100 µM | SN12C > 100 µM | NCI-H23 > 100 µM | MOLT-4 > 100 µM | SK-MEL-28 > 100 µM | 786-0 > 100 µM | TK-10 > 100 µM | LOX IMVI > 100 µM | RXF 393 > 100 µM | OVCAR-5 > 100 µM

O=CCCCC(Sc1ccccc1)Sc1ccccc1
inactive: M14 22.9 µM | OVCAR-4 21.7 µM | OVCAR-8 17.4 µM | HCC 2998 31 µM | UACC-62 7.67 µM | KM12 33 µM | HOP-62 > 100 µM | ACHN 16.3 µM | SN12C 22 µM | NCI-H23 11.5 µM | MOLT-4 12.5 µM | SK-MEL-28 15.8 µM | 786-0 19.1 µM | TK-10 32.4 µM | LOX IMVI 13.7 µM | RXF 393 > 10 µM

S=C(Nc1ccccn1)Nc1ccccc1Cl
inactive: M14 > 100 µM | OVCAR-4 > 61.7 µM | OVCAR-8 56 µM | HCC 2998 > 100 µM | UACC-62 > 52.4 µM | KM12 > 44.4 µM | HOP-62 52 µM | Malme-3M > 48.2 µM | ACHN 32.2 µM | SN12C > 100 µM | NCI-H23 49.9 µM | MOLT-4 > 100 µM | SK-MEL-28 > 100 µM | 786-0 > 67.5 µM | TK-10 > 68.7 µM | LOX IMVI > 100 µM | RXF 393 33.3 µM | OVCAR-5 > 50.2 µM

CS(=O)(=O)N(CCC#N)c1ccc(/C=C2\N=C(c3ccccc3Cl)OC2=O)cc1
inactive: M14 > 100 µM | OVCAR-8 > 100 µM | HCC 2998 > 100 µM | UACC-62 > 100 µM | KM12 > 100 µM | HOP-62 > 100 µM | Malme-3M > 100 µM | ACHN > 100 µM | SN12C > 100 µM | NCI-H23 > 100 µM | MOLT-4 > 100 µM | NCI-H226 > 100 µM | SK-MEL-28 > 100 µM | 786-0 > 100 µM | TK-10 > 100 µM | LOX IMVI > 100 µM | RXF 393 > 100 µM | OVCAR-5 > 100 µM

Cc1cc(N(CCC#N)S(C)(=O)=O)ccc1C=O
inactive: M14 > 100 µM | OVCAR-4 > 100 µM | OVCAR-8 > 100 µM | HCC 2998 > 100 µM | UACC-62 > 100 µM | KM12 > 100 µM | HOP-62 > 100 µM | Malme-3M > 100 µM | ACHN > 100 µM | SN12C > 100 µM | NCI-H23 > 100 µM | MOLT-4 > 100 µM | NCI-H226 > 100 µM | SK-MEL-28 > 100 µM | 786-0 > 100 µM | LOX IMVI > 100 µM | RXF 393 > 100 µM | OVCAR-5 > 100 µM

O=C(O)COc1cc(-c2ccccc2F)nc2cc3c(cc12)OCO3
inactive: M14 > 100 µM | OVCAR-8 > 100 µM | HCC 2998 > 100 µM | UACC-62 > 100 µM | KM12 > 100 µM | HOP-62 > 100 µM | HOP-92 61.8 µM | Malme-3M > 100 µM | ACHN > 100 µM | SN12C > 100 µM | NCI-H23 > 100 µM | MOLT-4 > 100 µM | NCI-H226 > 100 µM | SK-MEL-28 > 100 µM | 786-0 > 100 µM | TK-10 > 100 µM | LOX IMVI > 100 µM | RXF 393 > 100 µM | OVCAR-5 > 100 µM

O=c1oc2ccccc2cc1-c1nc2ccc([N+](=O)[O-])cc2o1
inactive: M14 > 100 µM | OVCAR-8 > 100 µM | HCC 2998 > 100 µM | UACC-62 > 100 µM | KM12 > 100 µM | HOP-62 28.1 µM | HOP-92 > 100 µM | Malme-3M > 100 µM | ACHN 30.1 µM | SN12C > 100 µM | NCI-H23 > 100 µM | MOLT-4 > 100 µM | NCI-H226 > 100 µM | SK-MEL-28 > 100 µM | 786-0 > 100 µM | TK-10 > 100 µM | LOX IMVI > 100 µM | RXF 393 > 100 µM

O=C[C@]12CC=C3OC4OC5(CCCCC5)OC4[C@H]3[C@H]1C(=O)C=CC2=O (some centres not stated)
inactive: M14 19 µM | OVCAR-4 16.7 µM | OVCAR-8 17.6 µM | HCC 2998 32.7 µM | UACC-62 21.5 µM | KM12 29.4 µM | HOP-62 > 100 µM | Malme-3M 17.6 µM | ACHN 18.2 µM | SN12C 52.8 µM | NCI-H23 > 10 µM | MOLT-4 2.85 µM | NCI-H226 > 100 µM | SK-MEL-28 26.7 µM | 786-0 9.84 µM | TK-10 35.1 µM | RXF 393 12.6 µM | OVCAR-5 53.3 µM

CC(=O)Oc1ccc(/C=C/C(=O)OCCCOC(=O)/C=C/c2ccc(OC(C)=O)c(OC(C)=O)c2)cc1OC(C)=O
inactive: M14 > 100 µM | OVCAR-4 > 100 µM | OVCAR-8 > 100 µM | HCC 2998 > 100 µM | UACC-62 > 100 µM | KM12 > 100 µM | HOP-62 51.2 µM | HOP-92 > 100 µM | Malme-3M > 100 µM | ACHN > 100 µM | SN12C > 100 µM | NCI-H23 > 100 µM | MOLT-4 > 100 µM | SK-MEL-28 > 100 µM | 786-0 93.1 µM | TK-10 > 100 µM | LOX IMVI > 100 µM | RXF 393 > 100 µM | OVCAR-5 > 100 µM

CCC(=O)Nc1nc2c(ncn2C2OC(COC(=O)CC)C(OC(=O)CC)C2OC(=O)CC)c(=O)[nH]1 (configuration not stated)
inactive: M14 > 100 µM | OVCAR-4 > 100 µM | OVCAR-8 > 100 µM | HCC 2998 > 100 µM | UACC-62 > 100 µM | KM12 > 100 µM | HOP-62 > 100 µM | Malme-3M > 100 µM | ACHN > 100 µM | SN12C > 100 µM | MOLT-4 > 100 µM | NCI-H226 > 100 µM | SK-MEL-28 > 100 µM | 786-0 > 100 µM | LOX IMVI > 100 µM | RXF 393 > 100 µM | OVCAR-5 > 100 µM

O=[N+]([O-])c1cccc(C2=NN(c3ccccc3)C[N+](c3ccc(Br)cc3)=N2)c1
inactive: M14 59 µM | OVCAR-4 > 100 µM | OVCAR-8 > 100 µM | HCC 2998 70.8 µM | UACC-62 > 100 µM | KM12 73.5 µM | HOP-62 > 100 µM | HOP-92 83.2 µM | Malme-3M > 100 µM | ACHN 93.5 µM | SN12C > 100 µM | NCI-H23 > 100 µM | MOLT-4 35.7 µM | SK-MEL-28 > 100 µM | 786-0 > 100 µM | TK-10 > 100 µM | RXF 393 > 100 µM | OVCAR-5 > 100 µM

COc1cc(O)c2c(=O)c(OC)c(-c3ccc4c(c3)OCO4)oc2c1
inactive: M14 > 85.1 µM | OVCAR-8 6.15 µM | HCC 2998 > 100 µM | UACC-62 78.9 µM | KM12 > 100 µM | HOP-62 7.76 µM | Malme-3M > 100 µM | ACHN 17.5 µM | SN12C > 100 µM | NCI-H23 > 31.5 µM | MOLT-4 > 68.9 µM | NCI-H226 > 57.9 µM | SK-MEL-28 > 100 µM | 786-0 15.3 µM | TK-10 36.7 µM | LOX IMVI > 23.2 µM | RXF 393 11.2 µM | OVCAR-5 > 100 µM

CC(=O)OCC1OC(n2cnc(C(N)=S)c2N)C(OC(C)=O)C1OC(C)=O (configuration not stated)
inactive: M14 > 100 µM | OVCAR-4 > 100 µM | OVCAR-8 > 100 µM | HCC 2998 > 100 µM | UACC-62 > 100 µM | KM12 > 100 µM | HOP-62 > 100 µM | HOP-92 > 100 µM | Malme-3M > 100 µM | ACHN > 100 µM | SN12C > 100 µM | NCI-H23 > 100 µM | MOLT-4 > 100 µM | NCI-H226 > 100 µM | SK-MEL-28 > 100 µM | 786-0 > 100 µM | TK-10 > 100 µM | LOX IMVI > 100 µM | OVCAR-5 > 100 µM

Clc1ccc(Nc2ncco2)cc1Cl
inactive: M14 > 10 µM | OVCAR-4 > 10 µM | OVCAR-8 > 10 µM | HCC 2998 > 10 µM | UACC-62 > 10 µM | KM12 > 10 µM | HOP-62 > 10 µM | HOP-92 > 10 µM | Malme-3M > 10 µM | ACHN > 10 µM | SN12C > 10 µM | NCI-H23 > 10 µM | MOLT-4 > 10 µM | NCI-H226 > 10 µM | SK-MEL-28 > 10 µM | 786-0 > 10 µM | TK-10 > 10 µM | LOX IMVI > 10 µM | OVCAR-5 > 10 µM
